Assays:
Type in all cases: cell-based
[1] = system: Bacillus subtilis MBI-600; experiment: Culture of Bacillus subtilis with sporulation-inhibiting and sporulation-accelerating substances, 45 hours (Example 2)
Protocol: (§1) Using a 500 ml Erlenmeyer flask (with baffles), each 100 ml of media listed in Table 1 was prepared and then autoclave sterilization was carried out. Note that glucose was separately sterilized and aseptically mixed in order to avoid Maillard reaction.
(§2) Test sections were set as described in Table 3. According to the conditions of each test section, the filter-sterilized aqueous solution of each sporulation-inhibiting substance was added aseptically to each medium. According to the conditions of each test section, one loopful of Bacillus subtilis MBI-600 was taken from a colony grown on a nutrient agar medium, inoculated, and then cultured with shaking at 30° C. and 150 rpm.
Sixteen (16) hours after the start of culture, each sporulation-accelerating substance was added according to the conditions of each test section, culture was continued. Forty-five (45) hours after the start of culture, culture was stopped.
(§3) Each of the thus obtained culture liquid was diluted 10-fold with sterile water, and then the bacterial cell concentration (vegetative cells and spores) and the sporulation rate (spore concentration/bacterial cell concentration) were measured using an optical microscope and a bacterial cell counter.

[2] = system: Bacillus thuringiensis NBRC 101235 strain; experiment: Culture of Bacillus thuringiensis with sporulation-inhibiting substance, 40 hours (Example 3); details: for Bacterial cell concentration / Spore concentration / Sporulation rate: 40 hours culture
Protocol: as §1
as §2, with “According” for “Test sections were set as described in Table 3. According”, “thuringiensis NBRC 101235 strain” for “subtilis MBI-600”, “rpm for 40 hours.” for “rpm.”
as §3

[3] = system: Bacillus subtilis MBI-600; experiment: Culture of Bacillus subtilis with sporulation-inhibiting substance, 64 hours (Example 1); details: for Spore concentration / Sporulation rate / Bacterial cell concentration: 64 hours culture; for bacterial cell concentrations as the concentration of the substance increased: trend over tested concentrations
Protocol: Using a 500 ml Erlenmeyer flask (with baffles), each 100 ml of media listed in Table 1 was prepared and then autoclave sterilization was carried out. Glucose was separately sterilized and aseptically mixed in order to avoid Maillard reaction.
as §2, with “According” for “Test sections were set as described in Table 3. According”, “One” for “According to the conditions of each test section, one”, “rpm for 64 hours.” for “rpm.”
as §3

[4] = sporulation-accelerating substance 3,000 ppm added at 16 hours, no inhibiting substance, 45 hours culture
[5] = 1.4 ppm plus decoyinine 200 ppm at 16 hours, 45 hours
[6] = 1.4 ppm, no accelerating substance, 45 hours
[7] = 0.3 ppm plus ammonium lactate 3,000 ppm at 16 hours, 45 hours
[8] = 0.3 ppm, no accelerating substance, 45 hours
[9] = 0.5 ppm plus ammonium acetate 2,000 ppm at 16 hours, 45 hours
[10] = 0.5 ppm plus ammonium acetate 3,000 ppm at 16 hours, 45 hours
[11] = 0.5 ppm plus ammonium acetate 4,000 ppm at 16 hours, 45 hours
[12] = 0.5 ppm plus ammonium lactate 3,000 ppm at 16 hours, 45 hours
[13] = 0.5 ppm, no accelerating substance, 45 hours
[14] = 1.0 ppm, no accelerating substance, 45 hours
[15] = 2.0 ppm, no accelerating substance, 45 hours

CC(=O)O.N [Ammonium acetate]
bacterial cell concentration and sporulation rate as the amount of ammonium acetate added increased ([1]; lincomycin 0.5 ppm with ammonium acetate): increased | spore productivity compared with test sections in which no such substance had been added ([1]; lincomycin 0.5 ppm with ammonium acetate added): significantly higher | Bacterial cell concentration [1, 4]: 4.6e+09 mL⁻¹ | Spore concentration [1, 4]: 4.2e+09 mL⁻¹ | Sporulation rate [1, 4]: 91%

CC(O)C(=O)O.N (centres unmarked) [Ammonium lactate]
sporulation rate compared with test sections in which no accelerating substance had been added ([1]; ammonium lactate added, regardless of the lincomycin concentration): improvement was observed | spore productivity compared with test sections in which no such substance had been added ([1]; lincomycin 0.3 ppm and 0.5 ppm with ammonium lactate added): significantly higher | Bacterial cell concentration [1, 4]: 5.2e+09 mL⁻¹ | Spore concentration [1, 4]: 4.8e+09 mL⁻¹ | Sporulation rate [1, 4]: 91%

O=C(N[C@H](CO)[C@H](O)c1ccc([N+](=O)[O-])cc1)C(Cl)Cl [Chloramphenicol]
bacterial cell concentration and spore concentration ([2]; 2.0 ppm): tended to increase | Bacterial cell concentration ([2]; 2.0 ppm): 1.6e+09 mL⁻¹ | Spore concentration ([2]; 2.0 ppm): 1.3e+09 mL⁻¹ | Sporulation rate ([2]; 2.0 ppm): 79% | the growth and the effect of inhibiting sporulation ([2]; 6.0 ppm): confirmed | Bacterial cell concentration ([2]; 6.0 ppm): 8e+06 mL⁻¹ | Sporulation rate ([2]; 6.0 ppm): 0% | effect of inhibiting sporulation ([1]; 1.4 ppm): observed | Bacterial cell concentration [1, 5]: 5.4e+09 mL⁻¹ | Spore concentration [1, 5]: 4.1e+09 mL⁻¹ | Sporulation rate [1, 5]: 76% | Bacterial cell concentration [1, 6]: 5.4e+09 mL⁻¹ | Sporulation rate [1, 6]: 0% | spore productivity compared with test sections in which no such substance had been added ([1]; chloramphenicol 1.4 ppm, both test sections (with and without decoyinine)): improved

C=C1O[C@@](CO)(n2cnc3c(N)ncnc32)[C@H](O)[C@@H]1O [Decoyinine]
Sporulation rate ([1]; decoyinine added during culture in addition to chloramphenicol 1.4 ppm): improvement was observed

CCC[C@@H]1C[C@@H](C(=O)N[C@@H]([C@H]2O[C@H](SC)[C@H](O)[C@@H](O)[C@H]2O)[C@@H](C)O)N(C)C1 [Lincomycin]
Bacterial cell concentration ([2]; 5.0 ppm): 1.4e+09 mL⁻¹ | Spore concentration ([2]; 5.0 ppm): 1.2e+09 mL⁻¹ | Sporulation rate ([2]; 5.0 ppm): 86% | bacterial cell concentration and spore concentration ([2]; 10.0 ppm or lower): tended to increase | Bacterial cell concentration ([2]; 10.0 ppm): 1.4e+09 mL⁻¹ | Spore concentration ([2]; 10.0 ppm): 1e+09 mL⁻¹ | Sporulation rate ([2]; 10.0 ppm): 71% | effect of inhibiting sporulation ([2]; 12.5 ppm): confirmed | Bacterial cell concentration ([2]; 12.5 ppm): 9e+08 mL⁻¹ | Spore concentration ([2]; 12.5 ppm): 1e+08 mL⁻¹ | Sporulation rate ([2]; 12.5 ppm): 13% | effect of inhibiting sporulation ([3]; 0.1 ppm): not observed | Spore concentration ([3]; 0.1 ppm added): 4.7e+09 mL⁻¹ | Sporulation rate ([3]; 0.1 ppm added): 100% | Bacterial cell concentration ([3]; 0.1 ppm added, carbon content 9.1 g/L): 4.7e+09 mL⁻¹ | effect of inhibiting sporulation ([3]; 1 ppm): observed | Bacterial cell concentration ([3]; 1.0 ppm added): 7e+09 mL⁻¹ | Sporulation rate ([3]; 1.0 ppm added): 0% | bacterial cell concentrations as the concentration of the substance increased [3]: tended to increase | effect of inhibiting sporulation ([1]; 0.3 ppm): not observed | Bacterial cell concentration [1, 7]: 5.6e+09 mL⁻¹ | Spore concentration [1, 7]: 5.1e+09 mL⁻¹ | Sporulation rate [1, 7]: 91% | Bacterial cell concentration [1, 8]: 3.3e+09 mL⁻¹ | Spore concentration [1, 8]: 2.7e+09 mL⁻¹ | Sporulation rate [1, 8]: 80% | effect of inhibiting sporulation ([1]; 0.5 ppm or more): observed | Bacterial cell concentration [1, 9]: 6.4e+09 mL⁻¹ | Spore concentration [1, 9]: 4.1e+09 mL⁻¹ | Sporulation rate [1, 9]: 64% | Bacterial cell concentration [1, 10]: 7.6e+09 mL⁻¹ | Spore concentration [1, 10]: 5.4e+09 mL⁻¹ | Sporulation rate [1, 10]: 71% | Bacterial cell concentration [1, 11]: 8.4e+09 mL⁻¹ | Spore concentration [1, 11]: 6.1e+09 mL⁻¹ | Sporulation rate [1, 11]: 72% | Bacterial cell concentration [1, 12]: 7.2e+09 mL⁻¹ | Spore concentration [1, 12]: 5.7e+09 mL⁻¹ | Sporulation rate [1, 12]: 79% | Bacterial cell concentration [1, 13]: 4.4e+09 mL⁻¹ | Sporulation rate [1, 13]: 0% | Bacterial cell concentration [1, 14]: 5.1e+09 mL⁻¹ | Sporulation rate [1, 14]: 0% | Bacterial cell concentration [1, 15]: 5.9e+09 mL⁻¹ | Sporulation rate [1, 15]: 0% | bacterial cell concentrations as the concentration of the substance increased ([1]; trend over tested concentrations): tended to increase

[H]/N=C(/N)N[C@H]1[C@H](O)[C@@H](O)[C@H](O[C@@H]2O[C@@H](C)[C@](O)(C=O)[C@H]2O[C@@H]2O[C@@H](CO)[C@H](O)[C@@H](O)[C@@H]2NC)[C@@H](N/C(N)=N\[H])[C@@H]1O [Streptomycin]
effect of inhibiting sporulation ([3]; 12.5 ppm): not observed | Bacterial cell concentration ([3]; 12.5 ppm added): 4.3e+09 mL⁻¹ | Spore concentration ([3]; 12.5 ppm added): 4.3e+09 mL⁻¹ | Sporulation rate ([3]; 12.5 ppm added): 100% | effect of inhibiting sporulation ([3]; 15.0 ppm): observed | Bacterial cell concentration ([3]; 15.0 ppm added): 5.5e+09 mL⁻¹ | Spore concentration ([3]; 15.0 ppm added): 3e+09 mL⁻¹ | Sporulation rate ([3]; 15.0 ppm added): 54% | bacterial cell concentrations as the concentration of the substance increased [3]: tended to increase

Reference: US11512280B2, “Method for culturing spore-forming bacteria, and method for producing useful substance” (priority 2016, dated 2022)
